“Also recorded” adds a separate entry of the source.
Assays:
[1] = tested on: convulsions caused by pentylene tetrazole; assay: Protection against convulsions caused by pentylene tetrazole (PTZ) in adult female Wistar rats after oral administration; format: in vivo, rat (Wistar; design: key to Chi2 difference between the doses (100 and 200 mgr/kg) / Chi2 difference between the times: NS: not significant; conditions: for Chi2 difference between the doses (100 and 200 mgr/kg): 100 vs 200 mgr/kg; for Chi2 difference between the times: 1 hour vs 2 hours + 4 hours; for Chi2 difference between the times / Chi2 difference between DPH and deuterated DPH: * P < 0.05, ** P < 0.01; for Protection of rats against the convulsive effect of PTZ (number of protected animals / total number of animals): PTZ 100 mgr/kg intraperitoneally; for Anticonvulsive activity compared with DPH: in comparison with diphenylhydantoin
Protocol: The active substances according to the invention were tested in order to examine their activity and their effects in comparison with known diphenylhydantoin (DPH). In these tests as follows, 5-(paradeuterophenyl)-5-phenylhydantoin will be designated by DPH-d1 and 5-phenyl-d5 -5-phenylhydantoin by DPH-d5.
To examine the anticonvulsive activity of these substances, they were subjected to testing as to protection against convulsions caused by pentylene tetrazole on adult female rat (Wistar strain: 200-220 gr). One, two or four hours after oral administration of hydantoins (100 and 200 mgr/kg: solution in dimethyl sulfoxide/propylene glycol), animals have received a dose of 100 mgr/kg of pentylene tetrazole (PTZ) intraperitonally, then they were maintained under observation for 1 hour. The absence of appearance of convulsions was considered as a positive response. The results are expressed in the following table I as the ratio between the number of protected animals and the total number of animals.
The research of significant differences has been made on the following aspects: between DPH and deuterated DPH at 1 hour at doses of 100 and 200 mgr/kg, between DPH and deuterated DPH at any time and at a dose of 100 mgr/kg, between doses of 100 and 200 mgr/kg and between the times.

[2] = Repartition in tissues (brain/blood ratio) after oral administration, mice, titration by gaseous chromatography; format: in vivo; conditions: mouse, 100 mg/kg, male mice 20-25gr, oral 100 mgr/kg; for Kp at 2 h: after 2 hours; for Kp at 24 h: after 24 hours
Excerpt: (§1) The contents of the various tissues in DPH, DPH-d1 and DPH-d5 have been determined at two times after oral administration (male mice, female rats, titration by gaseous chromatography).
(§2) The whole results are mentioned in the following table III. The indicated values represent the ratio of active substance concentrations in the brain and blood. After oral administration, these values as well in rat as in mouse show a trend, which is marked to very marked, to be higher for deuterated DPH than for DPH itself.

[3] = Repartition in tissues (brain/blood ratio) after oral administration, rats, titration by gaseous chromatography; format: in vivo; conditions: female rat ± 200 gr, oral 100 mg/kg; for Kp at 1 h: after 1 hour; for Kp at 2 h: after 2 hours
Excerpt: as §1, §2

[4] = Accumulation in the cerebral tissue (general statement); format: in vivo; conditions: in comparison with diphenylhydantoin
Excerpt: as §1, §2

O=C1NC(=O)C(c2ccccc2)(c2ccccc2)N1 [DPH, 5,5-diphenylhydantoin, reference compound]
Chi2 difference between the doses (100 and 200 mgr/kg) [1]: NS
Chi2 difference between the times [1]: NS
Protection of rats against the convulsive effect of PTZ (number of protected animals / total number of animals) ([1]; oral 100 mgr/kg, 1 hour): 4/25
Protection of rats against the convulsive effect of PTZ (number of protected animals / total number of animals) ([1]; oral 100 mgr/kg, 2 hours): 2/10
Protection of rats against the convulsive effect of PTZ (number of protected animals / total number of animals) ([1]; oral 100 mgr/kg, 4 hours): 0/10
Protection of rats against the convulsive effect of PTZ (number of protected animals / total number of animals) ([1]; oral 200 mgr/kg, 1 hour): 5/35
Kp at 2 h [2]: 1.45 ± 0.1
Kp at 24 h [2]: 2.09 ± 0.22
Kp at 1 h [3]: 0.9 ± 0.13
Kp at 2 h [3]: 5.91 ± 0.93

[2H]c1c([2H])c([2H])c(C2(c3c([2H])c([2H])c([2H])c([2H])c3[2H])NC(=O)NC2=O)c([2H])c1[2H] [5,5-di-(phenyl-d5)-hydantoin]
Anticonvulsive activity compared with DPH [1]: higher anticonvulsive activity than diphenylhydantoin
Accumulation in the cerebral tissue [4]: accumulation in the cerebral tissue more favorably

[2H]c1c([2H])c([2H])c(C2(c3ccccc3)NC(=O)NC2=O)c([2H])c1[2H] (stereo not shown) [DPH-d5, 5-phenyl-d5-5-phenylhydantoin]
Chi2 difference between the doses (100 and 200 mgr/kg) [1]: NS
Chi2 difference between the times [1]: 3.58
Chi2 difference between DPH and deuterated DPH ([1]; at 1 hour, 100 mgr/kg): 2.17
Chi2 difference between DPH and deuterated DPH ([1]; at 1 hour, 200 mgr/kg): 2.92
Chi2 difference between DPH and deuterated DPH ([1]; at any time, 100 mgr/kg): 1.22
Anticonvulsive activity compared with DPH [1]: A difference in the same direction, close to the significance limit; also recorded: higher anticonvulsive activity
Anticonvulsive activity compared with DPH ([1]; listed as (R,S)-5-phenyl-d5 -5-phenylhydantoin): higher anticonvulsive activity than diphenylhydantoin
Protection of rats against the convulsive effect of PTZ (number of protected animals / total number of animals) ([1]; oral 100 mgr/kg, 1 hour): 7/20
Protection of rats against the convulsive effect of PTZ (number of protected animals / total number of animals) ([1]; oral 100 mgr/kg, 2 hours): 2/10
Protection of rats against the convulsive effect of PTZ (number of protected animals / total number of animals) ([1]; oral 100 mgr/kg, 4 hours): 0/10
Protection of rats against the convulsive effect of PTZ (number of protected animals / total number of animals) ([1]; oral 200 mgr/kg, 1 hour): 11/35
Kp at 2 h [2]: 2.35 ± 0.26
Kp at 24 h [2]: 2.97 ± 0.3
Kp at 1 h [3]: 2.15 ± 0.37
Kp at 2 h [3]: 4.49 ± 1.33
Accumulation in the cerebral tissue [4]: accumulation in the cerebral tissue more favorably

[2H]c1ccc(C2(c3ccccc3)NC(=O)NC2=O)cc1 (stereo not shown) [DPH-d1, 5-(paradeuterophenyl)-5-phenylhydantoin]
Chi2 difference between the doses (100 and 200 mgr/kg) [1]: NS
Chi2 difference between the times [1]: 3.93
Chi2 difference between DPH and deuterated DPH ([1]; at 1 hour, 100 mgr/kg): 9.42
Chi2 difference between DPH and deuterated DPH ([1]; at 1 hour, 200 mgr/kg): 4.36
Chi2 difference between DPH and deuterated DPH ([1]; at any time, 100 mgr/kg): 9.40
Anticonvulsive activity compared with DPH [1]: better protects the animals against the convulsive effect of PTZ than DPH; also recorded: higher anticonvulsive activity
Protection of rats against the convulsive effect of PTZ (number of protected animals / total number of animals) ([1]; oral 100 mgr/kg, 1 hour): 9/14
Protection of rats against the convulsive effect of PTZ (number of protected animals / total number of animals) ([1]; oral 100 mgr/kg, 2 hours): 4/10
Protection of rats against the convulsive effect of PTZ (number of protected animals / total number of animals) ([1]; oral 100 mgr/kg, 4 hours): 2/10
Protection of rats against the convulsive effect of PTZ (number of protected animals / total number of animals) ([1]; oral 200 mgr/kg, 1 hour): 11/30
Kp at 1 h [3]: 2.1 ± 0.41
Kp at 2 h [3]: 15.5 ± 3.7

Source: patent US4304782A, “Psychotropic deuterated derivatives of phenylhydantoin and pharmaceutical compositions comprising such derivatives” (Region Wallonne, priority 1979, dated 1981)
